Patent US11162071B2, “Compositions and methods for generating hair cells by upregulating JAG-1” (Frequency Therapeutics, Inc., priority 2018, dated 2021)
Entries after “also recorded” stand apart in the source; their conditions may differ.

Assays:
[1] = system: cochlear Lgr5 progenitor cells; experiment: Expansion and enrichment of Lgr5-GFP cochlear progenitor cells in 3D culture (Lgr5+ assay); assay type: cell-based, mouse
Excerpt: “Stem Cell Proliferation Assay” as used herein is an assay to determine the capacity for agent(s) to induce the creation of stem cells from a starting cell population. In an exemplary Stem Cell Proliferation Assay, the number of cells for an initial cell population is harvested from a Lgr5-GFP mouse such as a B6.129P2-Lgr5tm1(cre/ERT2)Cle/J mouse (also known as Lgr5-EGFP-IRES-creERT2 or Lgr5-GFP mouse, Jackson Lab Stock No: 008875) between the age of 0 to 5 days, by isolating the organ of Corti sensory epithelium and dissociating the epithelium into single cells. Approximately 5000 cells are entrapped in 40 μl of culture substrate (for example: Matrigel (Corning, Growth Factor Reduced)) and placed at the center of wells in a 24-well plate with 500 μl of an appropriate culture media, growth factors and agent being tested. Appropriate culture media and growth factors include Advanced DMEM/F12 with media Supplements (1×N2, 1× B27, 2 mM Glutamax, 10 mM HEPES, 1 mM N-acetylcysteine, and 100 U/ml Penicillin/100 μg/ml Streptomycin) and growth factors (50 ng/ml EGF, 50 ng/ml bFGF, and 50 ng/ml IGF-1) as well as the agent(s) being assessed are added into each well. Cells are cultured for 10 days in a standard cell culture incubator at 37° C. and 5% CO2, with media change every 2 days. The number of Lgr5+ cells is quantified by counting the number of cells identified as Lgr5+ in an In Vitro Lgr5 activity assay. The fraction of cells that are Lgr5+ is quantified by dividing the number of cells identified as Lgr5+ in a cell population by the total number of cells present in the cell population. The number of hair cells in a population may be measured by staining with hair cell marker (e.g., Myosin VIIa), or using an endogenous reporter of hair cell genes (e.g., Pou4f3-GFP, Atoh1-nGFP) and analyzing using flow cytometry. The fraction of cells that are hair cells is quantified by dividing the number of cells identified as hair cells in a cell population by the total number of cells present in the cell population. Gene and/or protein expression and/or activity is measured in this assay using methods known in the art such as by PCR, Nanostring, immunostaining, RNAseq, RNA hybridization, or Western blot analysis.
Neonatal Lgr5-EGFP-IRES-Cre-ER mice (The Jackson Laboratory, strain 8875) were used to analyze the effects of small molecules on cochlear stem cell expansion (see Barker et al., Nature 449, 1003-7 (2007). This strain allowed for visualization and quantification of EGFP cells.
All animal studies were conducted under an approved institutional protocol per National Institutes of Health guidelines. Using neonatal animals, cochleae were dissected and the organ of Corti (sensory epithelium) was separated from the stria vascularis (ion transport epithelium) and the modiolus (nerve tissue). Epithelia were then collected and treated with TrypLE for 15-20 minutes to obtain single cells. The cells were then filtered ([…]) and suspended in a Matrigel (Corning) dome for 3D culture seeded at 0.5 cochlea per well.
Expansion of Lgr5 Cells: Cells were cultured in a 3D system and bathed in a serum free 1:1 mixture of DMEM and F12, supplemented with Glutamax (GIBCO), N2, B27 (Invitrogen), EGF (50 ng/mL; Chemicon), bFGF (50 ng/mL; Chemicon), IGF-1 (50 ng/mL; Chemicon), and small molecules for seven days. Media was changed every other day. Treatments were run in triplicate or quadruplicate.
Lgr5 cells were quantified after 7-10 days. Cell colonies were dissociated into single cells using TrypLE. The cells were then stained with propidium iodide (PI) and analyzed using a flow cytometer to count Lgr5-EGFP cells. The percentage of viable Lgr5 cells was plotted against the concentration in GraphPad Prism.
Organ of Corti are dissected from Lgr5 GFP+ mice and dissociated as single cells as described above. Background media contains the same supplements and growth factors at the same concentrations as described above. […]

GSK-3 alpha [2] = biological target: GSK-3 alpha (Homo sapiens, UniProt P49841); details: GSK-3 alpha of Table 3; cited from earlier work
GSK-3 alpha [3] = biological target: GSK-3 alpha (Homo sapiens, UniProt P49840); details: Table 3; cited from earlier work
Jag-1 [4] = experiment: Jag-1 upregulation/expression in cultured Lgr5+ cells (qPCR); assay type: cell-based, mouse; details: for Jag-1 upregulation: EFI background (FIG. 3)
HDAC [5] = details: Table 6, cited from earlier work; for Class selectivity: HDAC class
Jag-1 [6] = experiment: Jag-1 expression in cultured Lgr5+ cells, Western blot band intensity normalized to GAPDH; assay type: cell-based, mouse
Procedure: Calculated Jag-1 normalized to GAPDH using GelQuant software and bands quantified. Net volumes of Jag-1 bands were divided by net volume values of matched GAPDH bands. These values were normalized to vehicle in a background of growth factors including: 50 ng/mL EGF (E), 50 ng/mL bFGF (F), and 50 ng/mL IGF1 (I).
Cultures contained a background of growth factors including: 50 ng/mL EGF (E), 50 ng/mL bFGF (F), and 50 ng/mL IGF1 (I).
Calculated Jag-1 normalized to GAPDH using GelQuant software and bands quantified. Net volumes of Jag-1 bands were divided by net volume values of matched GAPDH bands. These values were normalized to vehicle.

HDAC [7] = experiment: HDAC inhibition in Lgr5 cell culture (FIG. 5); assay type: cell-based; details: with and without CHIR; EFI background (FIG. 5)
[8] = control compounds CHIR99021 4 μM and Valproic Acid 1 mM, EFI background
[9] = daprodustat 1.11 μM with CHIR 4 μM + VPA 1 mM, versus CHIR and CHIR+VPA, EFI background
[10] = SF1670 0.1 μM added to CHIR, versus CHIR, EFI background
[11] = AS1842856 425 nM alone, EFI background
[12] = AS1842856 concentration series, EFI background (FIG. 7)
[13] = 1,4-DPCA 370 nM with CHIR 4 μM + VPA 1 mM, versus CHIR+VPA, EFI background
[14] = VO-Ohpic 3 μM added to CHIR, versus CHIR, EFI background

Chain of GSK-3 alpha (Homo sapiens, UniProt P49840) (P49840 whole entry): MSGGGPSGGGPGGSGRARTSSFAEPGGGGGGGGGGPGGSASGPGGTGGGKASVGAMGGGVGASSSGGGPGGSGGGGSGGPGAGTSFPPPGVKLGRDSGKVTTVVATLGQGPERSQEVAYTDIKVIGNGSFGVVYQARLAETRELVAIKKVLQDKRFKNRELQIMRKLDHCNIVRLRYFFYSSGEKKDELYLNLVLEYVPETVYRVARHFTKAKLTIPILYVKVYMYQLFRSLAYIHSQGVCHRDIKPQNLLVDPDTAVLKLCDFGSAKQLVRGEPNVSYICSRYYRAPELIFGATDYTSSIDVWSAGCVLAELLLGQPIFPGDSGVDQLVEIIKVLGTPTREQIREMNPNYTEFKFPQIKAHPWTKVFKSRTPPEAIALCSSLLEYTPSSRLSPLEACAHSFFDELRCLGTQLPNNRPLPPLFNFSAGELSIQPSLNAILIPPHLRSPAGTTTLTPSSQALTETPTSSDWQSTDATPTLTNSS
Chain of GSK-3 alpha (Homo sapiens, UniProt P49841) (P49841 whole entry): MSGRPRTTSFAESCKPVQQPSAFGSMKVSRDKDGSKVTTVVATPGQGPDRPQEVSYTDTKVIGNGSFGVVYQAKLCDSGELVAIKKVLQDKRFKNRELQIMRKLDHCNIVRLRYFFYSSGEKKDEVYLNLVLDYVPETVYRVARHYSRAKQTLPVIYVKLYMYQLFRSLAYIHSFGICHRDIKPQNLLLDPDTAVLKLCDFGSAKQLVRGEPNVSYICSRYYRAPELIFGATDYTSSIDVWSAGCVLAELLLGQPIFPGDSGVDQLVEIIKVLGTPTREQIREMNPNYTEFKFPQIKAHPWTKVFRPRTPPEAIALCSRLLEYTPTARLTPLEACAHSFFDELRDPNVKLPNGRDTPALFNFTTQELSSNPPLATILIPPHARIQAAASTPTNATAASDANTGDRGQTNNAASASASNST

## Jag-1 peptide: soluble Jag-1 peptide (residues 188-204), CDDYYYGFGCNKFCRPR (SEQ ID NO:1) (listed as Homo sapiens)
[1]; 0.25 μM Jag-1 peptide added to 4 μM CHIR, EFI background
  Lgr5+ cell proliferation: able to recapitulate enhancement of Lgr5+ cell proliferation; also recorded: enhances CHIR induced Lgr5+ cell proliferation

## O=C1NC(=O)C(c2cnc3ccccn23)=C1c1cn2c3c(cc(F)cc13)CN(C(=O)N1CCCCC1)CC2 [LY2090314, 3-(9-fluoro-2-(piperidine-1-carbonyl)-1,2,3,4-tetrahydro-[1,4]diazepino[6,7,1-hi]indol-7-yl)-4-(imidazo[1,2-a]pyridin-3-yl)-1H-pyrrole-2,5-dione]
GSK-3 alpha [2]
  GSK-3 alpha: 0.9 nM
GSK-3 alpha [3]
  GSK-3 alpha: 2.1 nM

## Cc1c[nH]c(-c2cnc(NCCNc3ccc(C#N)cn3)nc2-c2ccc(Cl)cc2Cl)n1 [CHIR99021]
[1]; CHIR alone, EFI background
  enrichment (percent LGR5-GFP(+) cell) of cochlear Lgr5 progenitor cells: elicits
[1]; CHIR alone, background 50 ng/mL EGF, bFGF, IGF1 (EFI)
  expansion (LGR5-GFP(+) cell count) of cochlear Lgr5 progenitor cells: elicits the expansion
[1]; [8]
  enrichment of Lgr5 GFP+ cochlear progenitor cells: enrich
Jag-1 [4]; agent alone
  Jag-1 upregulation: upregulated Jag-1

## O=C(O)CNC(=O)C1C(=O)N(C2CCCCC2)C(=O)N(C2CCCCC2)C1=O [daprodustat, N-[(1,3-dicyclohexylhexahydro-2,4,6-trioxo-5-pyrimidinyl)carbonyl]-glycine]
[1]; agent alone, EFI background
  enrichment of Lgr5 GFP+ cochlear progenitor cells: does not enrich; also recorded: does not proliferate or enrich
  proliferation of Lgr5 GFP+ cochlear progenitor cells: does not proliferate
[1]; [9]
  Lgr5 GFP+ progenitor cell proliferation: does not enhance Lgr5 GFP+ progenitor cell proliferation
  enrichment of Lgr5 GFP+ progenitor cells: enhances enrichment

## Cc1ccc(C(=O)Nc2c[nH]nc2C(=O)NCCCOC(C)C)cn1 [GSK XXII]
GSK-3 alpha [3]
  GSK-3 alpha: 2.3 nM
[1]; concentration range in Lgr5+ assay, Table 3
  Lgr5+ Assay: 0.2 to 1 µM

## O=C(O)CNC(=O)c1nc(Cl)c2ccccc2c1O [FG-2216, N-[(1-chloro-4-hydroxy-3-isoquinolinyl)carbonyl]-glycine]
[1]; FG-2216 30 μM with CHIR 4 μM + VPA 1 mM, versus CHIR and CHIR+VPA, EFI background
  Lgr5 GFP+ progenitor cell proliferation: proliferates Lgr5 GFP+ progenitor cell similarly
[1]; FG-2216 30 μM with CHIR 4 μM + VPA 1 mM, versus CHIR+VPA, EFI background
  enrichment of Lgr5 GFP+ progenitor cells: shows a trend for enhanced enrichment
[1]; FG-2216 30 μM with CHIR 4 μM, versus CHIR and CHIR+VPA 1 mM, EFI background
  Lgr5 GFP+ progenitor cell proliferation: enhances Lgr5 GFP+ progenitor cell proliferation
[1]; FG-2216 30 μM with CHIR 4 μM, versus CHIR+VPA 1 mM, EFI background
  enrichment of Lgr5 GFP+ progenitor cells: enhances enrichment; also recorded: enriches Lgr5 GFP+ progenitor cell enrichment
[1]; agent alone, EFI background
  enrichment of Lgr5 GFP+ cochlear progenitor cells: does not enrich; also recorded: does not proliferate or enrich
  proliferation of Lgr5 GFP+ cochlear progenitor cells: does not proliferate

## C#CCC(CCCCCC)C(=O)O (centres unmarked) [2-hexyl-4-pentynoic acid]
HDAC [5]
  Class selectivity: Class I
  HDAC Potenc: 13 µM

## CCCC(CCC)C(=O)[O-].[Na+] [Sodium Valproate]
HDAC [5]
  Class selectivity: Class I
  HDAC Potenc: 39 to 161 µM
[1]; [8]
  enrichment of Lgr5 GFP+ cochlear progenitor cells: enrich
Jag-1 [6]; AS1842856 425 nM plus VPA 1 mM, versus AS1842856 alone
  Jag-1 upregulation: enhanced the effects of 425 nM AS1842856 on Jag-1 upregulation
HDAC [7]
  HDAC inhibition: concentration dependent increase in HDAC inhibition

## N#Cc1ccc2[nH]c(O)c(-c3ccc(CN4CCOCC4)cn3)c2c1 [AZD 1080]
GSK-3 alpha [3]
  GSK-3 alpha: 6.9 nM

## Na phenylbutyrate
HDAC [5]
  Class selectivity: Class I >
  HDAC Potenc: 9 to 16 µM

## CC(C)(C)C(=O)Nc1ccc2c(c1)C(=O)C(=O)c1ccccc1-2 [SF1670]
[1]; [10]
  enrichment (percent LGR5-GFP(+) cell) of cochlear Lgr5 progenitor cells: further enhanced
  expansion (LGR5-GFP(+) cell count) of cochlear Lgr5 progenitor cells: further enhanced

## CCn1cc(C(=O)O)c(=O)c2c(N)c(F)c(NC3CCCCC3)cc21 [AS1842856]
[1]; [11]
  expansion of cochlear Lgr5+ progenitor cells: elicits the expansion
[1]; AS1842856 425 nM combined with VPA 1 mM, EFI background
  enrichment of Lgr5 cells (percentage): enriched
[1]; [12]
  LGR5+ cell growth (Lgr5 GFP(+) Cell Count): concentration-dependent effects; also recorded: enhances expansion of cochlear progenitor cells concentration-dependent manner
  enrichment (Lgr5 GFP (%)): concentration-dependent effects
[1]; images, AS1842856 425 nM, EFI background
  Lgr5-GFP colony formation: promotes Lgr5-GFP colony formation
Jag-1 [6]; [11]
  Jag-1 expression: upregulates Jag-1 expression
Jag-1 [4]; qPCR, AS1842856 425 nM alone, EFI background
  Jag-1 expression: upregulates Jag-1 expression

## O=C(O)c1c[nH]c2c(ccc3cccnc32)c1=O [1,4-DPCA, 4,4α-dihydro-4-oxo-1,10-phenanthroline-3-carboxylic acid]
[1]; [13]
  Lgr5 GFP+ progenitor cell proliferation: enhances Lgr5 GFP+ progenitor cell proliferation
  enrichment of Lgr5 GFP+ progenitor cells: shows a trend for enrichment; also recorded: enhances Lgr5 GFP+ progenitor cell proliferation and enrichment
[1]; agent alone, EFI background
  enrichment of Lgr5 GFP+ cochlear progenitor cells: does not enrich; also recorded: does not proliferate or enrich
  proliferation of Lgr5 GFP+ cochlear progenitor cells: does not proliferate

## VO-Ohpic
[1]; [14]
  enrichment (percent LGR5-GFP(+) cell) of cochlear Lgr5 progenitor cells: enhanced
  expansion (LGR5-GFP(+) cell count) of cochlear Lgr5 progenitor cells: enhanced
HDAC [7]
  HDAC inhibition: does not elicit a detectable increase in HDAC inhibition
Jag-1 [4]; VO-Ohpic 3 μM added to CHIR, versus CHIR
  Jag-1 upregulation: enhanced; also recorded: synergistically enhances Jag-1 upregulation
Jag-1 [4]; agent alone, listed as VO
  Jag-1 upregulation: does not upregulate Jag-1
